Source: patent EP3421037A1, “RLS TREATMENT WITH INHIBITORS OF THE CEREBLON (CRBN) PROTEIN” (Klinikum rechts der Isar der Technischen Universität München, priority 2017, dated 2019)

System: RLS patient
Test: Treatment of one RLS patient with thalidomide; RLS severity and sleep disturbance observed weekly with four questionnaires
Type: in vivo, human
Details: for IRLSSG severity: 100 mg thalidomide daily plus two tablets pramipexole 0.18 mg, scale 0 to 40; for ESS sleepiness: Epworth Sleepiness Scale 0 to 24; for MOS sleep disturbance: range 0-100%; for RLS-6 score: scale 0 to 10
Protocol: The patient had been diagnosed with RLS but had suffered from the disease since childhood. They had family history of RLS with their parent and two siblings being affected.
The patient was washed off the concurrent medication, with the exception of two tablets of 0.18 mg pramipexole, which was maintained throughout the study.
After the baseline period, they were prescribed 100 mg of the inhibitor of the cereblon (CRBN) thalidomide (i.e. 2-(2,6-dioxopiperidin-3-yl)-2,3-dihydro-1H-isoindole-1,3-dione) daily, which they continued taking for three weeks in addition to their two tables pramipexol 0,18 mg treatment.
Throughout the six-week period, the RLS severity and sleep disturbance of the patient were weekly observed with four different questionnaires: • 1. IRLSSG severity scale: This is the gold standard questionnaire to evaluate RLS severity both in clinical practice and in pharmaceutical studies. The scale is based on 10 questions answered by the patient, and final severity score ranges from 0 to 40. On the IRLSSG scale, 0 points corresponds to no RLS, 1-10 points corresponds to mild RLS, 11-20 points corresponds to moderate RLS, 21-30 points corresponds to severe RLS and 31-40 points corresponds to very severe RLS. • 2. RLS-6 scale. This is an alternative scale used to evaluate different aspects of RLS. The average score may be used to evaluate the overall severity of RLS. The scale ranges from 0 to 10, with 0 indicating no RLS and 10 being the most severe RLS severity score. • 3. Epworth Sleepiness Scale (ESS). This is a gold standard questionnaire used to evaluate daytime sleepiness in clinical practice and in pharmaceutical studies. The scale ranges from 0 to 24, where 0-5 corresponds to normal daytime sleepiness, 6-10 corresponds to higher normal daytime sleepiness, 11-12 corresponds to mild excessive daytime sleepiness, 13-15 corresponds to moderate excessive daytime sleepiness and 16-24 corresponds to severe daytime sleepiness. • 4. MOS Sleep Scale. This is a questionnaire used to evaluate sleep disturbance, sleep efficiency, sleep adequacy and other related parameters with different subscores derived from the answers. In this study, the sleep disturbance score was used. The range is 0-100%, 100% indicating the most severe sleep disturbance.

[1] = week 4, 100 mg thalidomide daily plus pramipexole
[2] = week 5, 100 mg thalidomide daily plus pramipexole
[3] = week 6, 100 mg thalidomide daily plus pramipexole

O=C1CCC(N2C(=O)c3ccccc3C2=O)C(=O)N1 (stereo not shown) [Thalidomide, 2-(2,6-dioxopiperidin-3-yl)-2,3-dihydro-1H-isoindole-1,3-dione]
IRLSSG severity (week 4 (first treatment week)): 21 points | ESS sleepiness [1]: 4 | MOS sleep disturbance [1]: 31.3% | RLS-6 score [1]: 4.7 | IRLSSG severity (week 5 (second treatment week)): 20 points | ESS sleepiness [2]: 7 | MOS sleep disturbance [2]: 46.3% | RLS-6 score [2]: 2.7 | IRLSSG severity (week 6 (third treatment week)): 16 points | ESS sleepiness [3]: 3 | MOS sleep disturbance [3]: 43.8% | RLS-6 score [3]: 2 | treatment success of RLS on all four measured scores (weeks 4-6, 100 mg thalidomide daily plus pramipexole, compared with baseline weeks 1-3): significantly benefitted
